In US20160050958A1, “IMPROVED SWEETENER” (TATE & LYLE INGREDIENTS AMERICAS LLC, priority 2013, published 2016):

Experiments:
[1] = Round table sweetness evaluation by test panelists (SEV determination against sucrose references); conditions: samples made to equal sweet 10 SEV in neutral pH water, room temperature; references 4-14% sucrose
Procedure: Round table evaluations were performed with test panelists. Equal sweet 10 SEV concentrations in neutral pH water were made for allulose, AceK and fructose, as well as a composition comprising allulose, AceK and fructose. The components of the test compositions are described in the below tables. The mixed compositions were calculated using the Beidler mixture equation for the sweeteners. The Beidler mixture equation for sweeteners is as follows: […]
The concentration of each component in the mixture in ppm is divided by SEV (c/R) and is plotted against concentration, c. The slope of the linear regression is […]. The y-intercept of the linear regression multiplied by Rmax is the half-maximal sweetness concentration, 1/K. Rmax and 1/K are the two parameters used in the Beidler equation
The equal-molar mixture was tested against reference samples for the panelists to determine SEV values. […] The test samples were served in 2 ounce soufflé cups (approximately 60 ml) coded with 3-digit codes at room temperature. A two minute wait period between samples was enforced. Water and unsalted crackers was available for the panelists to clear their palates before and during testing. EyeQuestion was used for ballot development and recording of results. Results were collected in EyeQuestion for calculating approximate SEV level of each test sample.
The test products analyzed in this experiment are described below in Table 1.

[2] = % of the sweetness of sucrose; cited from earlier work

SMILES	Mean sucrose equivalent value (SEV) [1]	Median sucrose equivalent value (SEV) [1]	Sweetness relative to sucrose [2]
CC1=CC(=O)[N-]S(=O)(=O)O1.[K+] [AceK, potassium salt of 6-methyl-1,2,3-oxathiazine-4(3H)-one 2,2-dioxide]	9.286	8	–
O=C(CO)C(O)C(O)C(O)CO (stereo not shown) [Allulose, allulose]	10.14	10	around 70%
O=C(CO)[C@@H](O)[C@H](O)[C@H](O)CO [Fructose, fructose]	10.14	10	–
